Structures can show the parent of a compound that is named as a salt.
Tests used:
HiBiT-BRM = biological target: T1, HiBiT-BRM (Homo sapiens, UniProt P51531); assay: HiBiT-BRM cell-based degradation assay (Nano-Glo HiBiT Lytic Detection); settings: HeLa cells expressing HiBiT-BRM, 24 h; for DC50: read-out: BRM HiBit Degradation IC50
T1 construct: expressed in transfected cells
Summary of the method: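 Luminescence from HiBiT–LgBiT complementation in lysates of a stable HiBiT-BRM HeLa line measured after 24 h compound exposure. Degradation expressed as percent relative to DMSO-treated cells and cells given 2 μM of a known BRM/BRG1 degrader.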

HiBit-BRG1 = biological target: T2, HiBit-BRG1 (Homo sapiens, UniProt P51532); assay: HiBit-BRG1 cell-based degradation assay (Nano-Glo HiBiT Lytic Detection); settings: HeLa cells expressing HiBit-BRG1 and LgBit, 24 h; for DC50: read-out: BRG1 HiBit Degradation IC50; for Dmax: read-out: BRG1 HiBit Degradation Maximum (%)
T2 construct: expressed in transfected cells
Summary of the method: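 Percent degradation derived from lytic HiBiT signal, normalized to DMSO-treated cells and to cells given 2 μM of a known BRM/BRG1 degrader. The HeLa line stably expressed HiBit-BRG1 and LgBit; treatment lasted 24 h at 5000 cells per well.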

T2 sequence (P51532 whole entry): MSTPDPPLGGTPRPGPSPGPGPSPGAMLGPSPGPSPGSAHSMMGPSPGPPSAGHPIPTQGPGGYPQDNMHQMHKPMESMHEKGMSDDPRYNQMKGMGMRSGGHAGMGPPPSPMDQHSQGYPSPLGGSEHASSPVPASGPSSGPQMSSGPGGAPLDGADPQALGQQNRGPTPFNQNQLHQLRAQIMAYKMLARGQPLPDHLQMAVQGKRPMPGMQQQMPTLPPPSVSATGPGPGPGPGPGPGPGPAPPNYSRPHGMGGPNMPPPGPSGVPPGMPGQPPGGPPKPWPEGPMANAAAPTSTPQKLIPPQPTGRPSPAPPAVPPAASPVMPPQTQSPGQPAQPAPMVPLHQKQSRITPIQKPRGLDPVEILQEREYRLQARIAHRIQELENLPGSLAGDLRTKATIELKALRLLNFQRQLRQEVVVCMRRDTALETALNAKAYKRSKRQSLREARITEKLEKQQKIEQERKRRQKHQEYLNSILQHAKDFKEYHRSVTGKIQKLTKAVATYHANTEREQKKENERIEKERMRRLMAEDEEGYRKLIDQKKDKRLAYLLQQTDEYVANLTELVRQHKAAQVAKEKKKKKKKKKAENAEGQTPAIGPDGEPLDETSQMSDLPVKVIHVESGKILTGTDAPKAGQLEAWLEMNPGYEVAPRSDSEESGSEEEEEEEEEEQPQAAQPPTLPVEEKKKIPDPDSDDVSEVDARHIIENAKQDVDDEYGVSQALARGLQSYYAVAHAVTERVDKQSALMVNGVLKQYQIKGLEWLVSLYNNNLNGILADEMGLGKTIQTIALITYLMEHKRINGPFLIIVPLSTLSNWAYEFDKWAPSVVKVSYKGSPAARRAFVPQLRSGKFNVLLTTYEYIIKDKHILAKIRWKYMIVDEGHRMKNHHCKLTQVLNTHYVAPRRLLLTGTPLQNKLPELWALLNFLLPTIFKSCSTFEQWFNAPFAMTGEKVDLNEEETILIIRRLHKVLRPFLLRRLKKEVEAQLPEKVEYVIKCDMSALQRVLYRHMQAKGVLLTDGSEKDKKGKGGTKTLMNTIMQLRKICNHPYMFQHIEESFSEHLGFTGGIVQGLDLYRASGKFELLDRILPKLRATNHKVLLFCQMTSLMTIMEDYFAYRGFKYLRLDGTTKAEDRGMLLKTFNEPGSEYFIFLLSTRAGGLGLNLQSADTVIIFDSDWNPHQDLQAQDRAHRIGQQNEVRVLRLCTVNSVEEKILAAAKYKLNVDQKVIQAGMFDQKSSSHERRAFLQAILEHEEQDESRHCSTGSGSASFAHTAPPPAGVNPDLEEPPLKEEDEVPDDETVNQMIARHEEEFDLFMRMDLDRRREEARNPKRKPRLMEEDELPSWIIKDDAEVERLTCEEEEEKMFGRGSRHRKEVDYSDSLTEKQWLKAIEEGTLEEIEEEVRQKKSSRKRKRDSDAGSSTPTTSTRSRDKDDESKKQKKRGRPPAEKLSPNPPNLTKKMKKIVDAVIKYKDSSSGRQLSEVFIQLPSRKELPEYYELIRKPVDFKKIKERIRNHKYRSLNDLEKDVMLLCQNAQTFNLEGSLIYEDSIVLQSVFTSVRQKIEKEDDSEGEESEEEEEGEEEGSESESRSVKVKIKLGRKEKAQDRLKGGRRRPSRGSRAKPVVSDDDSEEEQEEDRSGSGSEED
T1 sequence (P51531 whole entry): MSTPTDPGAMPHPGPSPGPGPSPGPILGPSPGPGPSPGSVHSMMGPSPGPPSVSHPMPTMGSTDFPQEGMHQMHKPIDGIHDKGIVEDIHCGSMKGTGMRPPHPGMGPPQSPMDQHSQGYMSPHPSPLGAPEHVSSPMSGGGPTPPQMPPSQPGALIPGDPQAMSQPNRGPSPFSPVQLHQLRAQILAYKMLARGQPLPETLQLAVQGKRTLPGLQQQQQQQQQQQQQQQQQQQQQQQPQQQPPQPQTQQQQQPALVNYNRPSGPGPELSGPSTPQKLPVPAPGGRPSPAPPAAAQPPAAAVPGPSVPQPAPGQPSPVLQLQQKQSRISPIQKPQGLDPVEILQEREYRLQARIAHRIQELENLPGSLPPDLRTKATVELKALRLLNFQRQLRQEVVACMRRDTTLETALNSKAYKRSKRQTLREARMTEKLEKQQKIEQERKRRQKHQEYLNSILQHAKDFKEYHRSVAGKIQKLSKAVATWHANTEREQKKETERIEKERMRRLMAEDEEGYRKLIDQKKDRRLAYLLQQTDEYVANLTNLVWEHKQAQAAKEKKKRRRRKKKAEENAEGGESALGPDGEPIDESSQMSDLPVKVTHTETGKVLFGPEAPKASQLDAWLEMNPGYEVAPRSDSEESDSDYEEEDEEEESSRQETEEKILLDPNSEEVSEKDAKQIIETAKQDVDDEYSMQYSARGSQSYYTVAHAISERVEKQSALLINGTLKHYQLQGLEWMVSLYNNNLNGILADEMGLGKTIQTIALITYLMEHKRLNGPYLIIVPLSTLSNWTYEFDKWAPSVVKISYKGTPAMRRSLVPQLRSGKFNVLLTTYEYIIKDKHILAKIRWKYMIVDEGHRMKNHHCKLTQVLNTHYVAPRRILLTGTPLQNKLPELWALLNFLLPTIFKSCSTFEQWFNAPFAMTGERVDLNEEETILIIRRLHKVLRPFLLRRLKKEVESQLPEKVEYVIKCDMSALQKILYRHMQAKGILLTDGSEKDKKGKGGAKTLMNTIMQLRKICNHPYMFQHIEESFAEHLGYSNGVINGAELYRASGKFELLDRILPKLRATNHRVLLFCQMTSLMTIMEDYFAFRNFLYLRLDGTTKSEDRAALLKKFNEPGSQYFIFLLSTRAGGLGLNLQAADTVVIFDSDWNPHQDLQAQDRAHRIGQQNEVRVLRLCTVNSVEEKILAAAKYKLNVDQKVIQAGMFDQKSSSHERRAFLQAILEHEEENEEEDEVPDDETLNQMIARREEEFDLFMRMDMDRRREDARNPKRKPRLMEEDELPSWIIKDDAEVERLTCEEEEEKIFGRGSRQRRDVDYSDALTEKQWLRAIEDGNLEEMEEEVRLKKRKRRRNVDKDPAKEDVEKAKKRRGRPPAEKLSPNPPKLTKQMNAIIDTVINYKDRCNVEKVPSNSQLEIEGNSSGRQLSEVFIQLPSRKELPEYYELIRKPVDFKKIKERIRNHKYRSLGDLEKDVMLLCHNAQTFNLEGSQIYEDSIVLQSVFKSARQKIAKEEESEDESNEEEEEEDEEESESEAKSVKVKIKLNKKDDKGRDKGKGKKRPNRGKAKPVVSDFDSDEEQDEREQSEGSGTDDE

SMILES	DC50 (HiBiT-BRM) [nM]	DC50 (HiBit-BRG1) [nM]	Dmax (HiBit-BRG1) [%]	BRM HiBit Degradation Maximum (%) (HiBiT-BRM)
Cc1ncsc1-c1ccc(CNC(=O)[C@@H]2C[C@@H](O)CN2C(=O)[C@@H](NC(=O)CCCCCCCCCCCCCCCC(=O)NCc2ccc(CCNc3cc(-c4ccccc4O)nnc3N)cc2)C(C)(C)C)cc1 [Compound 136, N′-[[4-(2-[[3-amino-6-(2-hydroxyphenyl)pyridazin-4-yl]amino]ethyl)phenyl]methyl]-N-[(2S)-1-[(2S,4R)-4-hydroxy-2-([[4-(4-methyl-1,3-thiazol-5-yl)phenyl]methyl]carbamoyl)pyrrolidin-1-yl]-3,3-dimethyl-1-oxobutan-2-yl]heptadecanediamide]	> 100	> 1000	< 50	B (“B” indicates maximum degradation ≥50%)
Nc1nnc(-c2ccccc2O)cc1OCCc1ccc(CNC(=O)CCCCNc2ccc3c(c2)CN(C2CCC(=O)NC2=O)C3=O)cc1 (stereo not shown) [Compound 137, N-(4-(2-((3-amino-6-(2-hydroxyphenyl)pyridazin-4-yl)oxy)ethyl)benzyl)-5-((2-(2,6-dioxopiperidin-3-yl)-1-oxoisoindolin-5-yl)amino)pentanamide]	> 1000	> 1000	< 50	C (“C” indicates maximum degradation <50%)
Cc1ncsc1-c1ccc(CNC(=O)[C@@H]2C[C@@H](O)CN2C(=O)[C@@H](NC(=O)CCCCCCCCCNCc2ccc(CCNc3cc(-c4ccccc4O)nnc3N)cc2)C(C)(C)C)cc1 [Compound 139, (2S,4R)-1-((S)-2-(10-((4-(2-((3-amino-6-(2-hydroxyphenyl)pyridazin-4-yl)amino)ethyl)benzyl)amino)decanamido)-3,3-dimethylbutanoyl)-4-hydroxy-N-(4-(4-methylthiazol-5-yl)benzyl)pyrrolidine-2-carboxamide]	> 100	> 1000	> 50	A (“A” indicates maximum degradation ≥75%)
Cc1ncsc1-c1ccc(CNC(=O)[C@@H]2C[C@@H](O)CN2C(=O)[C@@H](NC(=O)CCCCCCCCC(=O)NCc2ccc(CCNc3cc(-c4ccccc4O)nnc3N)cc2)C(C)(C)C)cc1 [Compound 140, N′-[[4-(2-[[3-amino-6-(2-hydroxyphenyl)pyridazin-4-yl]amino]ethyl)phenyl]methyl]-N-[(2S)-1-[(2S,4R)-4-hydroxy-2-([[4-(4-methyl-1,3-thiazol-5-yl)phenyl]methyl]carbamoyl)pyrrolidin-1-yl]-3,3-dimethyl-1-oxobutan-2-yl]decanediamide]	> 100	> 1000	< 50	A (“A” indicates maximum degradation ≥75%)
CN(CCc1ccc(CNC(=O)CCCCNc2cccc3nnn(C4CCC(=O)NC4=O)c(=O)c23)cc1)c1cc(-c2ccccc2O)nnc1N (stereo not shown) [Compound 142, N-(4-(2-((3-amino-6-(2-hydroxyphenyl)pyridazin-4-yl)(methyl)amino)ethyl)benzyl)-5-((3-(2,6-dioxopiperidin-3-yl)-4-oxo-3,4-dihydrobenzo[d][1,2,3]triazin-5-yl)amino)pentanamide]	> 1000	> 1000	< 50	C (“C” indicates maximum degradation <50%)
CN(CCc1ccc(CNC(=O)CCCCOc2cccc3c2C(=O)N(C2CCC(=O)NC2=O)C3=O)cc1)c1cc(-c2ccccc2O)nnc1N (stereo not shown) [Compound 146, N-(4-(2-((3-amino-6-(2-hydroxyphenyl)pyridazin-4-yl)(methyl)amino)ethyl)benzyl)-5-((2-(2,6-dioxopiperidin-3-yl)-1,3-dioxoisoindolin-4-yl)oxy)pentanamide]	> 1000	> 1000	< 50	C (“C” indicates maximum degradation <50%)
Nc1nnc(-c2ccccc2O)cc1NCCc1ccc(CNC(=O)CCCCOc2cccc3c2C(=O)N(C2CCC(=O)NC2=O)C3=O)cc1 (stereo not shown) [Compound 147, N-(4-(2-((3-amino-6-(2-hydroxyphenyl)pyridazin-4-yl)amino)ethyl)benzyl)-5-((2-(2,6-dioxopiperidin-3-yl)-1,3-dioxoisoindolin-4-yl)oxy)pentanamide]	> 1000	> 1000	< 50	C (“C” indicates maximum degradation <50%)
Nc1nnc(-c2ccccc2O)cc1OCCc1ccc(C(=O)NCCN2CCN(c3cccc4c3C(=O)N(C3CCC(=O)NC3=O)C4=O)CC2)cc1 (stereo not shown) [Compound 149, 4-(2-((3-amino-6-(2-hydroxyphenyl)pyridazin-4-yl)oxy)ethyl)-N-(2-(4-(2-(2,6-dioxopiperidin-3-yl)-1,3-dioxoisoindolin-4-yl)piperazin-1-yl)ethyl)benzamide]	> 100	> 100	> 50	A (“A” indicates maximum degradation ≥75%)
CN(CCCCCOc1cccc2c1C(=O)N(C1CCC(=O)NC1=O)C2=O)Cc1ccc(CCNc2cc(-c3ccccc3O)nnc2N)cc1 (stereo not shown) [Compound 150, 4-((5-((4-(2-((3-amino-6-(2-hydroxyphenyl)pyridazin-4-yl)amino)ethyl)benzyl)(methyl)amino)pentyl)oxy)-2-(2,6-dioxopiperidin-3-yl)isoindoline-1,3-dione, formic acid salt]	> 1000	> 1000	< 50	C (“C” indicates maximum degradation <50%)
CN(CCCCCNc1ccc2c(c1)C(=O)N(C1CCC(=O)NC1=O)C2=O)Cc1ccc(CCOc2cc(-c3ccccc3O)nnc2N)cc1 (stereo not shown) [Compound 151, 5-[[5-([[4-(2-[[3-amino-6-(2-hydroxyphenyl)pyridazin-4-yl]oxy]ethyl)phenyl]methyl](methyl)amino)pentyl]amino]-2-(2,6-dioxopiperidin-3-yl)isoindole-1,3-dione]	> 1000	> 1000	> 50	C (“C” indicates maximum degradation <50%)
Nc1nnc(-c2ccccc2O)cc1OCCc1ccc(CNC(=O)CCCCOc2cccc3c2C(=O)N(C2CCC(=O)NC2=O)C3)cc1 (stereo not shown) [Compound 152, N-(4-(2-((3-amino-6-(2-hydroxyphenyl)pyridazin-4-yl)oxy)ethyl)benzyl)-5-((2-(2,6-dioxopiperidin-3-yl)-3-oxoisoindolin-4-yl)oxy)pentanamide]	> 100	> 1000	< 50	A (“A” indicates maximum degradation ≥75%)

Further lines, with some results ahead:

DC50 (HiBiT-BRM) [nM]	DC50 (HiBit-BRG1) [nM]	Dmax (HiBit-BRG1) [%]	SMILES	BRM HiBit Degradation Maximum (%) (HiBiT-BRM)
> 100	> 1000	< 50	Cc1ncsc1-c1ccc(CNC(=O)[C@@H]2C[C@@H](O)CN2C(=O)[C@@H](NC(=O)CCCCCCCCC(=O)NCc2ccc(CCOc3cc(-c4ccccc4O)nnc3N)cc2)C(C)(C)C)cc1 [Compound 138, N1-(4-(2-((3-amino-6-(2-hydroxyphenyl)pyridazin-4-yl)oxy)ethyl)benzyl)-N10-((S)-1-((2S,4R)-4-hydroxy-2-((4-(4-methylthiazol-5-yl)benzyl)carbamoyl)pyrrolidin-1-yl)-3,3-dimethyl-1-oxobutan-2-yl)decanediamide]	A (“A” indicates maximum degradation ≥75%)
> 1000	> 1000	< 50	Nc1nnc(-c2ccccc2O)cc1NCCc1ccc(CNC(=O)CCCCNc2cccc3nnn(C4CCC(=O)NC4=O)c(=O)c23)cc1 (stereo not shown) [Compound 141, N-(4-(2-((3-amino-6-(2-hydroxyphenyl)pyridazin-4-yl)amino)ethyl)benzyl)-5-((3-(2,6-dioxopiperidin-3-yl)-4-oxo-3,4-dihydrobenzo[d][1,2,3]triazin-5-yl)amino)pentanamide]	C (“C” indicates maximum degradation <50%)
> 1000	> 1000	< 50	Nc1nnc(-c2ccccc2O)cc1OCCc1ccc(CN2CC(N3CCN(c4cccc5c4C(=O)N(C4CCC(=O)NC4=O)C5=O)CC3)C2)cc1 (stereo not shown) [Compound 143, 4-(4-(1-(4-(2-((3-amino-6-(2-hydroxyphenyl)pyridazin-4-yl)oxy)ethyl)benzyl)azetidin-3-yl)piperazin-1-yl)-2-(2,6-dioxopiperidin-3-yl)isoindoline-1,3-dione]	C (“C” indicates maximum degradation <50%)
> 1000	> 1000	< 50	CN(CCCCCOc1cccc2c1C(=O)N(C1CCC(=O)NC1=O)C2=O)Cc1ccc(CCN(C)c2cc(-c3ccccc3O)nnc2N)cc1 (stereo not shown) [Compound 145, 4-((5-((4-(2-((3-amino-6-(2-hydroxyphenyl)pyridazin-4-yl)(methyl)amino)ethyl)benzyl)(methyl)amino)pentyl)oxy)-2-(2,6-dioxopiperidin-3-yl)isoindoline-1,3-dione formate]	C (“C” indicates maximum degradation <50%)
> 1000	> 1000	< 50	CN(CCCCCOc1ccc2c(c1)C(=O)N(C1CCC(=O)NC1=O)C2=O)Cc1ccc(CCOc2cc(-c3ccccc3O)nnc2N)cc1 (stereo not shown) [Compound 148, 5-((5-((4-(2-((3-amino-6-(2-hydroxyphenyl)pyridazin-4-yl)oxy)ethyl)benzyl)(methyl)amino)pentyl)oxy)-2-(2,6-dioxopiperidin-3-yl)isoindoline-1,3-dioneformate]	C (“C” indicates maximum degradation <50%)

Reference: US20230150974A1 (Foghorn Therapeutics Inc., priority 2020, published 2023)
